Patent US20260240163A1, “HERBICIDAL COMBINATIONS AND A METHOD FOR CONTROLLING UNDESIRED VEGETATION” (UPL Mauritius Limited, priority 2022, published 2026)

Tested on: Euphorbia heterophylla
Experiment: Post-emergence herbicidal efficacy trials; expected efficacy by Colby method
Type: in vivo
Settings: for Observed efficacy (%) of L-glufosinate ammonium (150 g a.i./ha): Table 11
Experimental: Methodology: Trials were conducted to evaluate the efficacy of the combinations comprising L-glufosinate ammonium and the additional herbicides on Euphorbia genus weeds.
The soil used was sandy clay loam-sand: 68.0%; silt: 8.0%; clay: 24.0%.
All treatments were in 4 replications per treatment with a spray volume of about 150 L/ha.
Efficacy Evaluation: The expected efficacy of the combination comprising L-glufosinate ammonium and additional herbicides was calculated using the well-established Colby method.
In the Colby method, the expected (or predicted) response of a combination of herbicides is calculated by taking the product of the observed response for each individual component of the combination when applied alone, divided by 100, and subtracting this value from the sum of the observed response for each component when applied alone. An unexpected enhancement in efficacy of the combination is then determined by comparing the observed response of the combination to the expected (or predicted) response as calculated from the observed response of each individual component alone. If the observed response of the combination is greater than the expected (or predicted) response, or stated conversely, if the difference between the observed and expected response is greater than zero, then the combination is said to be synergistic or unexpectedly effective (Colby, S. R., Weeds, 1967 (15), p. 20-22). The Colby method requires only a single dose of each herbicide applied alone and the mixture of both doses. The formula used to calculate the expected efficacy (EE) which was compared with the observed efficacy (OE) to determine the efficacy of the present disclosure is explained hereinbelow:
The expected efficacy for a combination of two active ingredients is as follows:
wherein, • A=Observed efficacy of active ingredient A at the same concentration as used in the mixture. • B=Observed efficacy of the active ingredient B at the same concentration as used in the mixture.

Which “Observed efficacy (%) of 2,4-D choline (228 g a.i./ha)” value (14 DAA) does the source give for C[N+](C)(C)CCO.O=C([O-])COc1ccc(Cl)cc1Cl [2,4-D choline, 2,4-dichlorophenoxyacetic acid (2,4-D) choline] here?
Its value is 30%.

What about the “Observed efficacy (%) of 2,4-D choline (228 g a.i./ha)” value (21 DAA) of the same molecule?
The value was 30%.

Which results are given for COc1c(Cl)ccc(Cl)c1C(=O)O [Dicamba]?
Observed efficacy (%) of Dicamba (228 g a.i./ha) (7 DAA): 45%; Observed efficacy (%) of Dicamba (228 g a.i./ha) (14 DAA): 40%

Which “Observed efficacy (%) of Florpyrauxifen-benzyl (15 g a.i./ha)” value (7 DAA) does the source give for COc1c(Cl)ccc(-c2nc(C(=O)OCc3ccccc3)c(Cl)c(N)c2F)c1F [Florpyrauxifen-benzyl] here?
Its value is 65%.

And the “Observed efficacy (%) of Florpyrauxifen-benzyl (15 g a.i./ha)” value (14 DAA)?
Its value is 90%.

What does the source list for CP(=O)(O)CC[C@H](N)C(=O)O.N [L-glufosinate ammonium]?
Observed efficacy (%) of L-glufosinate ammonium (Glufosinate-P-ammonium) (150 g a.i./ha) (7 DAA, Table 6): 95%; Observed efficacy (%) of L-glufosinate ammonium (Glufosinate-P-ammonium) (150 g a.i./ha) (7 DAA, Table 7): 95%; Observed efficacy (%) of L-glufosinate ammonium (Glufosinate-P-ammonium) (150 g a.i./ha) (7 DAA, Table 8): 95%; Observed efficacy (%) of L-glufosinate ammonium (Glufosinate-P-ammonium) (150 g a.i./ha) (7 DAA, Table 9): 95%; Observed efficacy (%) of L-glufosinate ammonium (Glufosinate-P-ammonium) (150 g a.i./ha) (7 DAA, Table 10): 95%; Observed efficacy (%) of L-glufosinate ammonium (Glufosinate-P-ammonium) (150 g a.i./ha) (14 DAA, Table 6): 98%; Observed efficacy (%) of L-glufosinate ammonium (Glufosinate-P-ammonium) (150 g a.i./ha) (14 DAA, Table 7): 98%; Observed efficacy (%) of L-glufosinate ammonium (Glufosinate-P-ammonium) (150 g a.i./ha) (14 DAA, Table 9): 93.5%; Observed efficacy (%) of L-glufosinate ammonium (Glufosinate-P-ammonium) (150 g a.i./ha) (14 DAA, Table 10): 93.5%; Observed efficacy (%) of L-glufosinate ammonium (150 g a.i./ha) (14 DAA): 98%; Observed efficacy (%) of L-glufosinate ammonium (Glufosinate-P-ammonium) (150 g a.i./ha) (21 DAA, Table 9): 88.8%; Observed efficacy (%) of L-glufosinate ammonium (Glufosinate-P-ammonium) (150 g a.i./ha) (21 DAA, Table 10): 88.8%; Observed efficacy (%) of L-glufosinate ammonium (150 g a.i./ha) (21 DAA): 98%; Observed efficacy (%) of L-glufosinate ammonium (Glufosinate-P-ammonium) (150 g a.i./ha) (28 DAA, Table 9): 93.1%; Observed efficacy (%) of L-glufosinate ammonium (Glufosinate-P-ammonium) (150 g a.i./ha) (28 DAA, Table 10): 93.1%

CSc1nnc(C(C)(C)C)c(=O)n1N [Metribuzin] was tested. Which “Observed efficacy (%) of Metribuzin (360 g a.i./ha)” value (“Observed efficacy (%) of Metribuzin” below) (7 DAA) did it give?
Its value is 41.9%.

What about the “Observed efficacy (%) of Metribuzin” value (14 DAA) of the same molecule?
Its value is 38.1%.

And the “Observed efficacy (%) of Metribuzin” value (21 DAA)?
Its value is 29.4%.

What about the “Observed efficacy (%) of Metribuzin” value (28 DAA) of the same molecule?
Its value is 12.5%.

For CCN(CC)C(=O)C(C)Oc1cccc2ccccc12 (stereo not drawn) [Napropamide], which “Observed efficacy (%) of Napropamide (675 g a.i./ha)” value (from here on “Observed efficacy (%) of Napropamide”) (7 DAA) is on record?
Its value is 20%.

What about the “Observed efficacy (%) of Napropamide” value (14 DAA) of the same molecule?
Its value is 10%.

What about the “Observed efficacy (%) of Napropamide” value (21 DAA) of the same molecule?
The value was 0%.

What about the “Observed efficacy (%) of Napropamide” value (28 DAA) of the same molecule?
The value was 0%.

For CCOc1cc(Oc2ccc(C(F)(F)F)cc2Cl)ccc1[N+](=O)[O-] [Oxyfluorfen], which “Observed efficacy (%) of Oxyfluorfen (430 g a.i./ha)” value (430 g a.i./ha, 7 DAA) is on record?
The value was 75%.
